Data taken from patent publication US4853230A, “Pharmaceutical formulations of acid labile substances for oral use” (priority 1986, dated 1989).

Assay: Rate of degradation/transformation of compounds in solution (half-life for the transformation to the active moiety) at pH 2 and 7
Format: physicochemical
Conditions: water solution
Procedure: Rate of degradation/transformation of compounds
Half-life (mintues) for the
transformation to the active moiety
Also at neutral pH-values the degradation reaction proceeds rapidly, e.g. at pH=7 the half-life of degradation is between 10 minutes and 65 hours while at higher pH-values the stability in solution for most compounds is much better. The stability profile is similar in solid phase. The degradation is catalyzed by acid reacting substances. The acid labile compounds are stabilized in mixtures with alkaline reacting substances.

Row | half-life (at pH = 2) [min] | half-life (at pH = 7) [min] | Structure (SMILES)
1 | 11 | 150 | COC(=O)c1cc2nc([S+]([O-])Cc3ncccc3C)[nH]c2cc1C (centres unmarked)
2 | 5.4 | 1700 | Cc1cnc(C[S+]([O-])c2nc3cc(C)ccc3[nH]2)c(C)c1 (centres unmarked)
3 | 1.9 | 122 | COc1ccnc(C[S+]([O-])c2nc3cc(C(F)(F)F)ccc3[nH]2)c1 (centres unmarked)
4 | 2 | 8.8 | COc1ccnc(C[S+]([O-])c2nc3cc(C(F)(F)F)ccc3[nH]2)c1C (centres unmarked)
5 | 3.7 | 1620 | CCc1cnc(C[S+]([O-])c2nc3cc(OC)ccc3[nH]2)cc1Oc1ccccc1 (centres unmarked)
6 | 33 | – | CCc1ccc2[nH]c([S+]([O-])Cc3nc4ccccc4n3C)nc2c1 (centres unmarked)
